Where a SMILES comes first, the peptide text is derived from it. The star is where a group is joined. Cbz = O=C(OCc1ccccc1)*
Tests used:
[1] = tested on: HIV-1 Tat (p14, p16) and Gag; experiment: Rescue of Tat/Gag expression by proteasome inhibitor MG132; type: cell-based; conditions: MG132 10 μM for 8 h, with 791, 833 or 892
Method: To assess effect of compounds on HIV-1 Tat stability, the decay of HIV-1 Tat levels was compared between DMSO-treated and compound-treated protein lysates in the presence of cycloheximide. In the first set of experiments, HIV-1 gene expression was induced with doxycylin (dox) for 24 h then 10 μg/mL cycloheximide was added to block new protein synthesis in combination with either DMSO or the compounds. Cells were harvested every 2 h and Tat protein levels measured by western blot. Quantification of the relative intensity of the detected bands was performed using ImageLab software (BioRad) and normalized to corresponding bands of the loading control (GAPDH) from at least three independent experiments. To determine whether the compounds’ effect on HIV-1 gene expression could be reversed by inhibition of the proteasome, compound treatment assay was performed as previously described with the addition of 10 μM MG132 (Sigma-Aldrich) to compound-treated cells 8 h prior to harvesting. Equal amounts of protein were run on 13 or 14% gels by SDS-PAGE, blotted and probed with antibodies for Tat and GAPDH. Quantification of the relative intensity of the detected bands was performed using ImageLab software (BioRad) and normalized to corresponding bands of the loading control (GAPDH) from at least three independent experiments.

[2] = tested on: p53; parameters: method as in PMID 27283735; conditions: cited from earlier work
[3] = tested on: total protein synthesis in HeLa HIVrtTA∆Mls cells; experiment: SUnSET total protein synthesis; type: cell-based; conditions: negative control
Method: The effect of the compounds on nascent protein synthesis was measured by surface sensing of translation (SUnSET) as described by Schmidt et al.. Cells were incubated with puromycin, an aminoacyl tRNA analog, to allow puromycin incorporation into newly translated peptides and prevention of further ribosomal elongation by chain termination. To assess the effect of the compounds on protein translation, cells were prepared and treated as described above, but were incubated with 10 μg/mL of puromycin for a period of 30 min prior to harvesting cell lysates for protein analysis. Protein concentration of cell lysates was quantified by Bradford assay and equal amounts of protein (30–35 μg) was run on either 10% or 4–15% (gradient) gels. Following transfer to PVDF (BioRad), blots were probed with mouse monoclonal antibody to puromycin (anti-12D10, EMD Millipore). Blots were developed using ECL Plus (Perkin-Elmer) or Clarity (BioRad) and imaged using the ChemiDoc MP Imager (BioRad). To quantify the levels of protein synthesis, the volume intensity in each lane of compound-treated sample was calculated relative to the DMSO-treated sample and normalized to GAPDH loading control using ImageLab software (BioRad) from at least four independent experiments.

[4] = tested on: HIV-1 US, SS and MS RNAs; experiment: qRTPCR of HIV-1 RNAs in 293T cells transfected with pHxbc2 R-/RI-; type: cell-based; conditions: 20 nM, 24 h, 293T (Figure S6)
Method: Samples were processed and assayed as previously described using the BioRad Aurum Total RNA Lysis Kit (BioRad) as per manufacturer’s instructions with the addition of Turbo DNase (Ambion). Purified RNA (0.5–2 μg) was reverse transcribed using M-MLV (Invitrogen) to generate complementary DNA (cDNA). HIV-1 and actin mRNA levels in DMSO- and compound-treated samples were quantified by qPCR using the Mastercycler ep realplex (Eppendorf) as described by Wong et al.. Gene quantification was evaluated using the absolute quantification method, normalized to β-actin expression, and expressed relative to DMSO-treatment.
Additional file 1: Figure S1. […] Cell viability was measured by an XTT assay. […] Cells were analyzed after 24 h incubation with the compounds at the indicated concentrations ranging between 0–47 μM (791), 0–5 μM (833), or 0–62.5 μM (892). Results are expressed as the percentage (%) of viable cells relative to DMSO treatment ±SEM of two independent experiments performed in triplicate. […] Images are cropped to show a representative field of view. b The dose range of the compounds which inhibit HIV-1 GagGFP expression in HeLa rtTA HIVGagGFP C7 cells was measured by mean fluorescence intensity and expressed relative to fluorescence intensity in DMSO-treated samples (N ≥ 3, *p ≤ 0.05, **p ≤ 0.01, and ***p ≤ 0.001). […]

CC(C)C[C@@H](C=O)NC(=O)[C@H](CC(C)C)NC(=O)[C@H](CC(C)C)NC(=O)OCc1ccccc1 [MG132, reference compound] (Cbz-Leu-Leu-Leu-aldehyde)
production of HIV-1 Gag on addition of MG132 [1]: did not restore

COc1cc(/C=C/C(=O)CC(=O)/C=C/c2ccc(O)c(OC)c2)ccc1O [curcumin]
Tat and p53 levels [2]: reduces

C[C@@H]1C[C@@H]([C@H](O)CC2CC(=O)NC(=O)C2)C(=O)[C@@H](C)C1 [cycloheximide, reference compound]
puromycin signal (newly synthesized polypeptides) [3]: little

CCC(=C/[C@H](C)C/C=C/C(C)=C/[C@@H](C)C(=O)[C@@H](C)[C@H](O)[C@@H](C)C/C(C)=C/C(=O)O)/C=C/[C@@H]1OC(=O)C=C[C@@H]1C [leptomycin B]
HIV-1 MS RNA abundance [4]: little or no change
HIV-1 US and SS RNA levels [4]: dramatic reduction

From paper PMC5267425, “Identification of small molecule modulators of HIV-1 Tat and Rev protein accumulation” (Retrovirology, 2017)
